Test results: patent US20250320213A1, “Nitrogen-Containing Heterocyclic Compounds” (Pfizer Inc., priority 2024, published 2025)
Where two headings read alike, the source gives them in different places.

What was measured:
STAT6 = target: T1, STAT6 (Homo sapiens, UniProt P42226); assay: STAT6 Reporter Luciferase Assay (IL-13 stimulated HaCaT keratinocyte NanoLuc reporter cells); assay type: cell-based; conditions: read-out: Reporter EC50
T1 construct: stably transfected HaCaT keratinocyte cell line, which expresses NanoLuc luciferase reporter gene under the transcriptional control of the STAT6 responsive promoter; endogenous in cells; host or cells: HaCaT keratinocyte reporter cell line (stably transfected with a NanoLuc reporter)
T1 sequence (P42226 1-847): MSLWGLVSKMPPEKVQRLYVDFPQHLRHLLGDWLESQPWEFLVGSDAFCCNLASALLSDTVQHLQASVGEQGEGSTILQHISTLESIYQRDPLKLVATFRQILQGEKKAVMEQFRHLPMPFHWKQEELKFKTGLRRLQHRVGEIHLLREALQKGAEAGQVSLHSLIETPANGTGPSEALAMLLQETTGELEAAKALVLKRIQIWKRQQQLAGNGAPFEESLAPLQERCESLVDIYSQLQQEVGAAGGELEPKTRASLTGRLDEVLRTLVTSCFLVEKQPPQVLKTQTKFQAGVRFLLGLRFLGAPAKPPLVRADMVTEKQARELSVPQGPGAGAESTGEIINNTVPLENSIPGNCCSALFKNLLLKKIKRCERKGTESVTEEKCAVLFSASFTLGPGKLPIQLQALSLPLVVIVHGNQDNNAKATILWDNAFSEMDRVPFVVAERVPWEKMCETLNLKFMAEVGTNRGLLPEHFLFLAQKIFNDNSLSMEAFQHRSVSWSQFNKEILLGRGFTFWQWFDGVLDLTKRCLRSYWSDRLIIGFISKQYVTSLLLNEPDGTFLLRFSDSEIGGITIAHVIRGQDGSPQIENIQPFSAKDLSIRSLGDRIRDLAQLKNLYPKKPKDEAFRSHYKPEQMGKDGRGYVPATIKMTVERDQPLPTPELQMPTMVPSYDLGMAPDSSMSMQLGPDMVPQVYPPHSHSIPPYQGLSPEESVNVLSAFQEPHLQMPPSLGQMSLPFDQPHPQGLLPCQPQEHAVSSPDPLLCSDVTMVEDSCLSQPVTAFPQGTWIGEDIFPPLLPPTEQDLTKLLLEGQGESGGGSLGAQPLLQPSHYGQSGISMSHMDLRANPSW
Outline: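 Compounds were tested as 11-point, 4-fold series in duplicate, applied for 2 h at 37 °C in low-serum (2% FBS) DMEM. The cells were a stable HaCaT line with NanoLuc under a STAT6-responsive IL-13Ra2 promoter. After 4 h with 0.12 nM IL-13, Nano-Glo luminescence was measured.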

[1] = tested on: CCL17 secretion in peripheral human whole blood; assay: Human Whole Blood (HWB) CCL17 TR-FRET Assay (IL-13 stimulated CCL17 secretion); assay type: cell-based
Outline: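 IC50 values reflect inhibition of IL-13-driven CCL17 release in human whole blood. Blood was preincubated with compound 2 h, stimulated 48 h at 37 °C with IL-13 (10 ng/mL final), and serum CCL17 was measured by TR-FRET.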

[2] = STAT6 NanoLuc luciferase reporter, IL-13 stimulated HaCaT keratinocyte cells
[3] = Homo sapiens, 48 h, inhibition of CCL17 secretion in human whole blood, 10 ng/mL IL13, 48 hours
[4] = IL-13 stimulated HaCaT STAT6 NanoLuc reporter cells
[5] = Homo sapiens, 48 h, human whole blood, IL-13 stimulated
[6] = Homo sapiens, 48 h, human whole blood, 10 ng/mL IL13, 48 hours

`CC(C)n1nc(C(=O)NCc2ccc(NC(=O)N3CCC(CO)CC3)cc2)c2c1CCN(c1ccc(C(=O)N(C)C)cn1)C2` [Example 175, 5-(5-(dimethylcarbamoyl)pyridin-2-yl)-N-(4-(4-(hydroxymethyl)piperidine-1-carboxamido)benzyl)-1-isopropyl-4,5,6,7-tetrahydro-1H-pyrazolo[4,3-c]pyridine-3-carboxamide] showed an EC50 (STAT6; [2]) of 7 nM and an IC50 [1, 3] of 67 nM.
`CN(C)C(=O)Nc1ccc(CNC(=O)c2nc(C(F)(F)F)n3c2CN(c2ccc(C(=O)N(C)C)cn2)CC3)cc1` [Example 22, 7-(5-(dimethylcarbamoyl)pyridin-2-yl)-N-(4-(3,3-dimethylureido)benzyl)-3-(trifluoromethyl)-5,6,7,8-tetrahydroimidazo[1,5-a]pyrazine-1-carboxamide] was tested, and the EC50 (STAT6; [2]) was 21 nM and the IC50 [1, 3] was 54 nM.
`CN(C)C(=O)Nc1ccc(CNC(=O)c2nn(C)c3c2CN(c2ccc(C(=O)N(C)C)cn2)CC3C(F)(F)F)cc1` (single isomer, unassigned) [Example 391, rel-(R or S)-5-(5-(dimethylcarbamoyl)pyridin-2-yl)-N-(4-(3,3-dimethylureido)benzyl)-1-methyl-7-(trifluoromethyl)-4,5,6,7-tetrahydro-1H-pyrazolo[4,3-c]pyridine-3-carboxamide] gave an EC50 (STAT6; [4]) of 740 nM and an IC50 [1, 5] of 2170 nM.
`CC(C)n1nc(C(=O)NCc2ccc(NC(=O)NCc3ccc(NC(=O)N(C)C)cc3)cc2)c2c1[C@@H](C)CN(c1ccc(C(=O)N(C)C)cn1)C2` [Example 499, (S)-5-(5-(dimethylcarbamoyl)pyridin-2-yl)-N-(4-(3-(4-(3,3-dimethylureido)benzyl)ureido)benzyl)-1-isopropyl-7-methyl-4,5,6,7-tetrahydro-1H-pyrazolo[4,3-c]pyridine-3-carboxamide] was tested, and the EC50 (STAT6; [4]) was 0.3 nM and the IC50 [1, 5] was 6 nM.
With `CC(C)n1nc(C(=O)NCc2ccc(NC(=O)N3CCC4(CC3)CNCCO4)cc2)c2c1[C@@H](C)CN(c1ccc(C(=O)N(C)C)cc1)C2` [Example 628, (S)-N-(4-((5-(4-(dimethylcarbamoyl)phenyl)-1-isopropyl-7-methyl-4,5,6,7-tetrahydro-1H-pyrazolo[4,3-c]pyridine-3-carboxamido)methyl)phenyl)-1-oxa-4,9-diazaspiro[5.5]undecane-9-carboxamide] the EC50 (STAT6; [4]) was 1 nM and the IC50 [1, 6] was 4 nM.
In the case of `CN(C)C(=O)Nc1ccc(CNC(=O)c2nn(C)c3c2[C@@H]2COC[C@H](C3)N2c2ccc(C(=O)N(C)C)cn2)cc1` (racemic) [Example 72, rac-(4R,8S)-10-(5-(dimethylcarbamoyl)pyridin-2-yl)-N-(4-(3,3-dimethylureido)benzyl)-1-methyl-1,4,5,7,8,9-hexahydro-4,8-epiminooxocino[5,4-c]pyrazole-3-carboxamide], the EC50 (STAT6; [2]) is reported as 308 nM and the IC50 [1, 3] is reported as 1100 nM.
For `COc1ccc2c(n1)CCN(C(=O)c1ccc(N3CCc4c(c(C(=O)NCc5ccc(NC(=O)N(C)C)cc5)nn4C(C)C)C3)nc1)C2` [Example 384, N-(4-(3,3-dimethylureido)benzyl)-1-isopropyl-5-(5-(2-methoxy-5,6,7,8-tetrahydro-1,6-naphthyridine-6-carbonyl)pyridin-2-yl)-4,5,6,7-tetrahydro-1H-pyrazolo[4,3-c]pyridine-3-carboxamide], the EC50 (STAT6; [4]) was 15 nM and the IC50 [1, 5] was 1070 nM.
`CCC1Cc2c(c(C(=O)NCc3ccc(NC(=O)N(C)C)cc3)nn2CC)CN1c1ccc(C(=O)N(C)C)cn1` (single isomer, unassigned) [Example 117, rel-(R or S)-5-(5-(dimethylcarbamoyl)pyridin-2-yl)-N-(4-(3,3-dimethylureido)benzyl)-1,6-diethyl-4,5,6,7-tetrahydro-1H-pyrazolo[4,3-c]pyridine-3-carboxamide] gave an EC50 (STAT6; [2]) of 3 nM and an IC50 ([1]; inhibition of CCL17 secretion in human whole blood, 10 ng/mL IL13, 48 hours) of 13 nM.
Work on `CC(C)n1nc(C(=O)NCc2ccc(NC(=O)N(C)CC(F)F)cc2)c2c1CCN(c1ccc(C(=O)N(C)C)cn1)C2` [Example 189, N-(4-(3-(2,2-difluoroethyl)-3-methylureido)benzyl)-5-(5-(dimethylcarbamoyl)pyridin-2-yl)-1-isopropyl-4,5,6,7-tetrahydro-1H-pyrazolo[4,3-c]pyridine-3-carboxamide] yielded an EC50 (STAT6; [4]) of 10 nM and an IC50 [1, 5] of 95 nM.
Work on `CC(C)n1nc(C(=O)NCc2ccc(NC(=O)N3CC(C)(N)C3)cc2)c2c1CCN(c1ccc(C(=O)N(C)C)cn1)C2` [Example 163, N-(4-(3-amino-3-methylazetidine-1-carboxamido)benzyl)-5-(5-(dimethylcarbamoyl)pyridin-2-yl)-1-isopropyl-4,5,6,7-tetrahydro-1H-pyrazolo[4,3-c]pyridine-3-carboxamide] yielded an EC50 (STAT6; [2]) of 16 nM and an IC50 [1, 3] of 30 nM.
`CN(C)C(=O)Nc1ccc(CNC(=O)c2nn(C(C)(C)C)c3c2CN(c2ccc(C(=O)N(C)C)cn2)CC3)cc1` [Example 148, 1-(tert-butyl)-5-(5-(dimethylcarbamoyl)pyridin-2-yl)-N-(4-(3,3-dimethylureido)benzyl)-4,5,6,7-tetrahydro-1H-pyrazolo[4,3-c]pyridine-3-carboxamide] gave an EC50 (STAT6; [2]) of 10 nM and an IC50 [1, 3] of 176 nM.
`CC(C)n1nc(C(=O)NCc2ccc(NC(=O)N3CCN(C)CC3)cc2)c2c1[C@@H](C)CN(c1ccc(-n3nccn3)cn1)C2` [Example 631, (S)-5-(5-(2H-1,2,3-triazol-2-yl)pyridin-2-yl)-1-isopropyl-7-methyl-N-(4-(4-methylpiperazine-1-carboxamido)benzyl)-4,5,6,7-tetrahydro-1H-pyrazolo[4,3-c]pyridine-3-carboxamide] showed an EC50 (STAT6; [4]) of 1 nM and an IC50 [1, 6] of 24 nM.
`CN(C)C(=O)Nc1ccc(CNC(=O)c2nn(CC3CCC3)c3c2CN(c2ccc(C(=O)N(C)C)cn2)CC3)cc1` [Example 257, 1-(cyclobutylmethyl)-5-(5-(dimethylcarbamoyl)pyridin-2-yl)-N-(4-(3,3-dimethylureido)benzyl)-4,5,6,7-tetrahydro-1H-pyrazolo[4,3-c]pyridine-3-carboxamide] was tested, and the EC50 (STAT6; [4]) was 15 nM and the IC50 [1, 5] was 272 nM.
Compound `CC(C)n1nc(C(=O)NCc2ccc(NC(N)=O)cc2)c2c1CCN(c1ccc(C(N)=O)cn1)C2` [Example 457, 5-(5-carbamoylpyridin-2-yl)-1-isopropyl-N-(4-ureidobenzyl)-4,5,6,7-tetrahydro-1H-pyrazolo[4,3-c]pyridine-3-carboxamide] has an EC50 (STAT6; [4]) of 5960 nM and an IC50 [1, 5] of 5010 nM.
In the case of `CNC(=O)Nc1ccc(CNC(=O)c2nn(C(C)C)c3c2CN(c2ccc(-n4c(C)nn(C)c4=O)cn2)C[C@@H]3C)cc1` [Example 521, (S)-5-(5-(1,3-dimethyl-5-oxo-1,5-dihydro-4H-1,2,4-triazol-4-yl)pyridin-2-yl)-1-isopropyl-7-methyl-N-(4-(3-methylureido)benzyl)-4,5,6,7-tetrahydro-1H-pyrazolo[4,3-c]pyridine-3-carboxamide], the EC50 (STAT6; [4]) is reported as 2 nM and the IC50 [1, 5] is reported as 34 nM.
`CNC(=O)Nc1ccc(CNC(=O)c2nn(C(C)C)c3c2CN(c2ccc(N4CCCC4=O)cn2)C[C@@H]3C)cc1` [Example 480, (S)-1-isopropyl-7-methyl-N-(4-(3-methylureido)benzyl)-5-(5-(2-oxopyrrolidin-1-yl)pyridin-2-yl)-4,5,6,7-tetrahydro-1H-pyrazolo[4,3-c]pyridine-3-carboxamide] gave an EC50 (STAT6; [4]) of 0.3 nM and an IC50 [1, 5] of 3 nM.
